Measurements: ChEMBL document CHEMBL5131559, “Discovery and Preclinical Profiling of GSK3839919, a Potent HIV-1 Allosteric Integrase Inhibitor” (ACS Med Chem Lett, 2022)

What was measured:
[1] = tested on: Human immunodeficiency virus 1; assay: Antiviral activity against recombinant HIV1 NLRep-Rluc harbouring polymorphic T124/T125 integrase infected in human MT-2 cells assessed as inhibition of virus growth in presence of fetal bovine serum by measuring luciferase activity after 4 days; type: functional, organism-based; conditions: Human immunodeficiency virus 1, NLRep, MT2, 96 h
[2] = tested on: Human immunodeficiency virus 1; assay: Antiviral activity against recombinant HIV1 NLRep-Rluc harbouring polymorphic N124/A125 integrase infected in human MT-2 cells assessed as inhibition of virus growth in presence of fetal bovine serum by measuring luciferase activity after 4 days; type: functional, organism-based; conditions: Human immunodeficiency virus 1, NLRep, MT2, 96 h
[3] = Cytotoxicity against human MT2 cells; type: toxicity, cell-based
[4] = Metabolic stability in human liver microsomes assessed as parent compound disappearance by measuring half life at 0.5 uM in presence of NADPH by LC-MS/MS analysis; type: ADME, Microsome
[5] = Toxicity in human Huh-7 cells assessed as fold change in lipid droplet count at 10 uM incubated for 48 hrs by plate reader assay; type: cell-based; conditions: huh-7, 48 h
[6] = Toxicity in rat Hepatoma cell line assessed as fold change in lipid droplet count at 10 uM incubated for 48 hrs by plate reader assay; type: cell-based
[7] = Clearance in CD-1 mouse at 1 mg/kg, iv by LC-MS/MS analysis; type: ADME, organism-based; conditions: in vivo
[8] = Clearance in cynomolgus monkey at 1 mg/kg, iv by LC-MS/MS analysis; type: ADME, organism-based, Macaca fascicularis; conditions: in vivo
[9] = Clearance in Sprague-Dawley rat at 1 mg/kg, iv by LC-MS/MS analysis; type: ADME, organism-based; conditions: in vivo
[10] = AUC (0 to infinity) in Sprague-Dawley rat at 5 mg/kg, po by LC-MS/MS analysis; type: ADME, organism-based; design: time infinity, dose 5 mg/kg, route po; conditions: in vivo
[11] = Oral bioavailability in Sprague-Dawley rat at 5 mg/kg by LC-MS/MS analysis; type: ADME, organism-based; conditions: in vivo
[12] = tested on: Human immunodeficiency virus 1; assay: Antiviral activity against recombinant HIV1 NLRep-Rluc harbouring polymorphic A124/T125 integrase infected in human MT-2 cells assessed as inhibition of virus growth in presence of fetal bovine serum by measuring luciferase activity after 4 days; type: functional, organism-based; conditions: Human immunodeficiency virus 1, NLRep, MT2, 96 h
[13] = tested on: Human immunodeficiency virus 1; assay: Antiviral activity against recombinant HIV1 NLRep-Rluc harbouring polymorphic T124/A125 integrase infected in human MT-2 cells assessed as inhibition of virus growth in presence of fetal bovine serum by measuring luciferase activity after 4 days; type: functional, organism-based; conditions: Human immunodeficiency virus 1, NLRep, MT2, 96 h
[14] = tested on: Human immunodeficiency virus 1; assay: Antiviral activity against recombinant HIV1 NLRep-Rluc harbouring polymorphic N124/T125 integrase infected in human MT-2 cells assessed as inhibition of virus growth in presence of fetal bovine serum by measuring luciferase activity after 4 days; type: functional, organism-based; conditions: Human immunodeficiency virus 1, NLRep, MT2, 96 h
[15] = tested on: Human immunodeficiency virus 1; assay: Antiviral activity against recombinant HIV1 NLRep-Rluc harbouring polymorphic A124/A125 integrase infected in human MT-2 cells assessed as inhibition of virus growth in presence of fetal bovine serum by measuring luciferase activity after 4 days; type: functional, organism-based; conditions: Human immunodeficiency virus 1, NLRep, MT2, 96 h
[16] = tested on: Human immunodeficiency virus 1; assay: Antiviral activity against recombinant HIV1 NLRep-Rluc harbouring polymorphic T124/V125 integrase infected in human MT-2 cells assessed as inhibition of virus growth in presence of fetal bovine serum by measuring luciferase activity after 4 days; type: functional, organism-based; conditions: Human immunodeficiency virus 1, NLRep, MT2, 96 h
[17] = AUC (0 to infinity) in CD-1 mouse at 5 mg/kg, po by LC-MS/MS analysis; type: ADME, organism-based; design: time infinity, dose 5 mg/kg, route po; conditions: in vivo
[18] = Oral bioavailability in CD-1 mouse at 5 mg/kg by LC-MS/MS analysis; type: ADME, organism-based; conditions: in vivo
[19] = Clearance in Beagle dog at 1 mg/kg, iv by LC-MS/MS analysis; type: ADME, organism-based, Canis lupus familiaris; conditions: in vivo
[20] = AUC (0 to infinity) in Beagle dog at 2 mg/kg, po by LC-MS/MS analysis; type: ADME, organism-based, Canis lupus familiaris; design: time infinity, dose 2 mg/kg, route po; conditions: in vivo
[21] = Oral bioavailability in Beagle dog at 2 mg/kg by LC-MS/MS analysis; type: ADME, organism-based, Canis lupus familiaris; conditions: in vivo
[22] = AUC (0 to infinity) in cynomolgus monkey at 2 mg/kg, po by LC-MS/MS analysis; type: ADME, organism-based, Macaca fascicularis; design: time infinity, dose 2 mg/kg, route po; conditions: in vivo
[23] = Oral bioavailability in cynomolgus monkey at 2 mg/kg by LC-MS/MS analysis; type: ADME, organism-based, Macaca fascicularis; conditions: in vivo
[24] = Toxicity in human Huh-7 cells assessed as fold change in lipid droplet count at 20 uM incubated for 48 hrs by plate reader assay; type: cell-based; conditions: hepatoma cell line
Huh-7 = assay: Cytotoxicity against human Huh-7 cells at 40 to 80 uM; type: toxicity, cell-based; conditions: huh-7, 80 µM, dose 40-80 µM
Hepatoma cell line = assay: Cytotoxicity against rat Hepatoma cell line at 40 to 80 uM; type: toxicity, cell-based; conditions: dose 40-80 µM
[25] = Cmax in rat at 50 mg/kg,po qd for 1 week; type: ADME, organism-based; design: time 1 weeks, dose 50 mg/kg, route po; conditions: in vivo
[26] = AUC in rat at 50 mg/kg,po qd for 1 week; type: ADME, organism-based; design: dose 50 mg/kg, time 1 weeks, route po; conditions: in vivo, 168 h
[27] = Toxicity in rat assessed as hepatocellular vacuolation at 200 mg/kg,po for 1 week; type: organism-based; conditions: in vivo, 168 h, time 1 weeks
[28] = tested on: Human immunodeficiency virus 1; assay: Antiviral activity against recombinant HIV1 NLRep-Rluc harbouring polymorphic T124/T125 integrase infected in human MT-2 cells assessed as fold change in inhibition of virus growth in presence of fetal bovine serum by measuring luciferase activity after 4 days; type: functional; design: reference not given here; conditions: time 4 day
[29] = Toxicity in rat assessed as hepatocellular vacuolation at 50 mg/kg,po for 1 week; type: organism-based; conditions: in vivo, 168 h, time 1 weeks
[30] = Toxicity in rat assessed as increase in alkaline phosphatase level at 50 mg/kg,po for 1 week; type: organism-based; conditions: in vivo, 168 h, time 1 weeks
[31] = Toxicity in dog assessed as hepatocellular vacuolation at 60 mg/kg,po for 1 week; type: organism-based, Canis lupus familiaris; conditions: in vivo, 168 h, time 1 weeks
[32] = Toxicity in dog assessed as increase in alkaline phosphatase level at 60 mg/kg,po for 1 week; type: organism-based, Canis lupus familiaris; conditions: in vivo, 168 h, time 1 weeks

For `Cc1nc(C)c([C@H](OC(C)(C)C)C(=O)O)c(N2CCC(C)(C)CC2)c1-c1ccc(OCCc2ccc(F)cc2)cc1`, the EC50 [1] was 1.7 nM, the EC50 [2] was 3.8 nM and the CC50 [3] was ≥ 22000 nM. For the same compound, the half-life at 0.5 µM [4] was > 120 min, the “fold change (FC)” value [5] was 3.7 and the “fold change (FC)” value [6] was 4.

With `Cc1ncc(-c2ccc(OCCc3ccc(F)cc3)cc2)c(N2CCC(C)(C)CC2)c1[C@H](OC(C)(C)C)C(=O)O` the “fold change (FC)” value [5] was 2.9 and the “fold change (FC)” value [6] was 2.5.

`Cc1cccc(Cl)c1CN1CCc2cc(-c3c(C)nc(C)c([C@H](OC(C)(C)C)C(=O)O)c3N3CCC(C)(C)CC3)ccc2C1` gave a clearance [7] of 3.9 mL/min/kg, an EC50 [1] of 3.5 nM and an EC50 [2] of 7.5 nM. For the same compound, the CC50 [3] was 22500 nM, the clearance [8] was 3.3 mL/min/kg and the clearance [9] was 3.5 mL/min/kg. For the same compound, the AUC(0-inf) [10] was 14.9 µM·h, the bioavailability [11] was 35% and the EC50 [12] was 5.8 nM. For the same compound, the EC50 [13] was 5.4 nM, the EC50 [14] was 5.8 nM and the EC50 [15] was 6.5 nM. The EC50 [16] was 3.2 nM, the AUC(0-inf) [17] was 30.3 µM·h and the bioavailability [18] was 72%. The clearance [19] was 0.5 mL/min/kg, the AUC(0-inf) [20] was 104 µM·h and the bioavailability [21] was 90%. The AUC(0-inf) [22] was 5.4 µM·h, the bioavailability [23] was 58% and the “fold change (FC)” value [5] was 4.1. The “fold change (FC)” value [6] was 3.7, the “fold change (FC)” value [24] was 9.1 and the Activity (Huh-7) was “Toxic”. For the same compound, the Activity (Hepatoma cell line) was “Toxic”, the Cmax [25] was 32 µM and the AUC [26] was 335 µM·h. For the same compound, the Activity [27] was “Toxic”.

For `Cc1nc(C)c([C@H](OC(C)(C)C)C(=O)O)c(N2CCC(C)(C)CC2)c1-c1ccc2c(c1)CC[C@@H](Cc1ccc(F)cc1)O2`, the EC50 [1] was 1.5 nM, the EC50 [2] was 7.3 nM and the CC50 [3] was ≥ 22000 nM. The “fold change (FC)” value [28] was 5.

`Cc1cccc(Cl)c1CN1CCc2cc(-c3cnc(C)c([C@H](OC(C)(C)C)C(=O)O)c3N3CCC(C)(C)CC3)ccc2C1` showed a clearance [7] of 1 mL/min/kg, an EC50 [1] of 2.8 nM and an EC50 [2] of 5.7 nM. It also gave a CC50 [3] of 19500 nM, a clearance [8] of 1.7 mL/min/kg and a clearance [9] of 3.8 mL/min/kg. For the same compound, the AUC(0-inf) [10] was 21.6 µM·h, the bioavailability [11] was 71% and the EC50 [12] was 4.5 nM. The EC50 [13] was 5 nM, the EC50 [14] was 3.1 nM and the EC50 [15] was 4.6 nM. It also gave an EC50 [16] of 1.6 nM, an AUC(0-inf) [17] of 43.1 µM·h and a bioavailability [18] of 47%. The clearance [19] was 2.2 mL/min/kg, the AUC(0-inf) [20] was 24.2 µM·h and the bioavailability [21] was 89%. The AUC(0-inf) [22] was 10.7 µM·h, the bioavailability [23] was 51% and the “fold change (FC)” value [5] was 1.2. For the same compound, the “fold change (FC)” value [6] was 1.8, the “fold change (FC)” value [24] was 3.7 and the Activity (Huh-7) was “Toxic”. The Activity (Hepatoma cell line) was “Toxic”, the Cmax [25] was 488 µM and the Activity [29] was “Toxic”. The Activity [30] was “Toxic”, the Activity [31] was “Toxic” and the Activity [32] was “Toxic”.

For `Cc1nc(C)c([C@H](OC(C)(C)C)C(=O)O)c(N2CCC(C)(C)CC2)c1-c1cnn(CCCc2ccc(F)cc2)c1`, the EC50 [1] was 8.8 nM, the CC50 [3] was ≥ 22000 nM and the “fold change (FC)” value [28] was 4.8. For the same compound, the half-life at 0.5 µM [4] was 34 min.

For `Cc1nc(C)c([C@H](OC(C)(C)C)C(=O)O)c(N2CCC(C)(C)CC2)c1-c1ccc2c(c1)CCN(c1nccc(-c3cnccn3)n1)C2`, the EC50 [1] was 2.2 nM, the EC50 [2] was 7.9 nM and the CC50 [3] was ≥ 17000 nM. For the same compound, the clearance [9] was 2.1 mL/min/kg, the AUC(0-inf) [10] was 23.7 µM·h and the bioavailability [11] was 38%.

For `Cc1nc(C)c([C@H](OC(C)(C)C)C(=O)O)c(N2CCC(C)(C)CC2)c1-c1ccc2c(c1)CCN(c1nc3cnccc3s1)C2`, the EC50 [1] was 1.5 nM, the EC50 [2] was 2.6 nM and the CC50 [3] was ≥ 17000 nM. The clearance [9] was 14.8 mL/min/kg, the AUC(0-inf) [10] was 10.8 µM·h and the bioavailability [11] was > 100%.

For `Cc1nc(C)c([C@H](OC(C)(C)C)C(=O)O)c(N2CCC(C)(C)CC2)c1-c1ccc2c(c1)CC[C@H](Cc1ccc(F)cc1)O2`, the EC50 [1] was 2.5 nM, the EC50 [2] was 12.8 nM and the CC50 [3] was ≥ 22000 nM. The “fold change (FC)” value [28] was 5.
